Experimental data taken from PubChem BioAssay AID1549 (Sanford-Burnham Center for Chemical Genomics, 2009).
Active and inactive are the calls of the source. No rule for the calls is given here.

Each compound was assayed against Influenza A virus M2 proton channel (A/TW/4845/1999 H1N1) (assay: M2 proton channel binding, NMR based, influenza A virus H1N1 strain (AID 1549)). Settings: NMR binding screen, M2 protein.
For O=C(Nc1ccc2c(c1)OCCO2)c1c(F)cccc1F, the Kd was > 4 mM (inactive). With N#Cc1c(N)c(C(=O)c2ccccc2)n2c1CCC2 the Kd was > 4 mM (inactive). In the case of O=C(O)c1cccc(-n2cccc2)c1, the Kd is reported as > 4 mM (inactive). For Cn1c(=O)c2cn3ncccc3c2n(C)c1=O, the Kd was > 4 mM (inactive). In the case of Cc1nnc(NCCCO)[nH]c1=O, the Kd is reported as > 4 mM (inactive). With Cc1ccc(CN2CCNC(=O)C2CC(=O)O)o1 (centres undefined) the Kd was > 4 mM (inactive). With CN1CCN(S(=O)(=O)c2ccc(=O)[nH]c2)CC1 the Kd was > 4 mM (inactive). COc1cc(NC(=O)c2ccccc2)c(C)cc1N was tested, and the Kd was > 4 mM (inactive). With Cc1ccc(S(=O)(=O)CC(=O)N(C)C)cc1 the Kd was > 4 mM (inactive). With Cc1cc(O)cc(=O)n1CCCC(=O)O the Kd was > 4 mM (inactive). For S=C(NCC1CCCO1)NC1CC1 (centres undefined), the Kd was > 4 mM (inactive). In the case of NC1CSCC1O (centres undefined), the Kd is reported as > 4 mM (inactive). In the case of CC(=O)Nc1ccc(NC(=O)c2ccnn2C)cc1, the Kd is reported as > 4 mM (inactive). In the case of O=C(O)c1cn(-c2ccccc2)nc1-c1ccncc1, the Kd is reported as > 4 mM (inactive). For OCC1CCCN2CCCCC12 (centres undefined), the Kd was > 4 mM (inactive). For Cc1ccc(SCc2nc(-c3ccncc3)no2)cc1, the Kd was > 4 mM (inactive). For O=c1[nH]cc(NCc2ccco2)c(=O)[nH]1, the Kd was > 4 mM (inactive). With Cc1cc(C(=O)Nc2ccc3c(c2)OCCO3)c(C)o1 the Kd was > 4 mM (inactive). Cc1ccnc(NS(=O)(=O)c2ccccc2)n1 was tested, and the Kd was > 4 mM (inactive). CC(=O)c1c(O)cc(C)n(Cc2ccccc2)c1=O was tested, and the Kd was > 4 mM (inactive). For CS(=O)(=O)NN=C1CCCCC1, the Kd was > 4 mM (inactive). With O=C(Nc1ccc2ccccc2c1)c1cnccn1 the Kd was > 4 mM (inactive). CCOC(=O)C1=C(C)N2CCN=C2S1 was tested, and the Kd was > 4 mM (inactive). For Cc1c(N=Cc2ccc[nH]2)c(=O)n(-c2ccccc2)n1C, the Kd was > 4 mM (inactive). For CCOC(=O)c1cc(C)n(-n2cnnc2)c1C, the Kd was > 4 mM (inactive). COc1c(O)cc2c(-c3ccccc3)cc(=O)oc2c1OC was tested, and the Kd was > 4 mM (inactive). With NC(=O)C1CC2C=CC1C2 (centres undefined) the Kd was > 4 mM (inactive). With O=c1cccc2n1CC1CC2CN2CCCC[C@@H]12 (some centres undefined) the Kd was > 4 mM (inactive). With O=C(Nc1c[nH]c(=O)[nH]c1=O)c1ccccc1F the Kd was > 4 mM (inactive). With Nc1cccc(S(N)(=O)=O)c1 the Kd was > 4 mM (inactive). For NC(=O)C1CCN(Cc2ccccc2)CC1, the Kd was > 4 mM (inactive). For Nc1c(N2CCCC2)cnn(-c2ccccc2)c1=O, the Kd was > 4 mM (inactive). CC1/C(=N/O)C[C@@H]2C[C@H]1C2(C)C (some centres undefined) was tested, and the Kd was > 4 mM (inactive). CC(=O)Nc1nc(C)nc(-c2ccccc2)c1C(C)=O was tested, and the Kd was > 4 mM (inactive). For C=C1C(=O)O[C@@H]2C[C@@]3(C)CCC[C@H](C)C3=C[C@H]12, the Kd was > 4 mM (inactive). COC(=O)c1cccnc1Oc1ccccc1 was tested, and the Kd was > 4 mM (inactive). With CCOC(=O)c1csc(C)n1 the Kd was > 4 mM (inactive). Cc1csc(NC(=O)c2cccs2)n1 was tested, and the Kd was > 4 mM (inactive). For Cn1c(=O)c2c(ncn2C)n(C)c1=O, the Kd was > 4 mM (inactive). With O=C(O)c1cccc(CSc2ncccn2)c1 the Kd was > 4 mM (inactive). For O=C(O)c1ccc(Oc2ccccc2)nc1, the Kd was > 4 mM (inactive). In the case of Cc1ccc(-n2cnnn2)c2cccnc12, the Kd is reported as > 4 mM (inactive). CC(=O)c1ccc(CC2SC(N)=NC2=O)cc1 (centres undefined) was tested, and the Kd was > 4 mM (inactive). For NCCc1nc2ccccc2[nH]1, the Kd was > 4 mM (inactive). In the case of O=C(Nc1ccccc1)Nc1ccccn1, the Kd is reported as > 4 mM (inactive). With COC1=CC(C)[C@@H]2C[C@H]3OC(=O)C[C@H]4C(C)=C(OC)C(=O)C([C@@]34C)[C@@]2(C)C1=O (some centres undefined) the Kd was > 4 mM (inactive). For O=C1CS/C(=N/N=C2CCCC2)N1, the Kd was > 4 mM (inactive). In the case of CSc1nc2cc(F)c(F)cc2n1C, the Kd is reported as > 4 mM (inactive). In the case of C/C=C/C(=O)Nc1ccc(NC(C)=O)cc1, the Kd is reported as > 4 mM (inactive). CCOC(=O)C1CCC(=O)c2cccn21 (centres undefined) was tested, and the Kd was > 4 mM (inactive). For CP(C)(=O)c1cccc(C(=O)O)c1, the Kd was > 4 mM (inactive). With Cc1nnc(NCCO)[nH]c1=O the Kd was > 4 mM (inactive). For Cc1csc(CCc2nc(C)cs2)n1, the Kd was > 4 mM (inactive). With Cc1c(/C=N\n2cnnc2)c2ccccc2n1C the Kd was > 4 mM (inactive). In the case of O=S1(=O)CCC(NC(=S)Nc2ccccc2)C1 (centres undefined), the Kd is reported as > 4 mM (inactive). In the case of Cc1cc(NC(=O)CCCn2cnc([N+](=O)[O-])n2)no1, the Kd is reported as > 4 mM (inactive). With COc1cc2c(cc1O)[C@@H](Cc1ccc(O)cc1)[N+](C)(C)CC2 the Kd was > 4 mM (inactive). For CCOC(=O)CC1NCCNC1=O (centres undefined), the Kd was > 4 mM (inactive). In the case of NCc1nnnn1-c1ccccc1, the Kd is reported as > 4 mM (inactive). In the case of COc1ccc(C2=CC(=O)C=CC2=O)cc1, the Kd is reported as > 4 mM (inactive). In the case of Cc1cc(C(=O)NCc2ccco2)cs1, the Kd is reported as > 4 mM (inactive). With CC1(C)CC23C(=O)CCC(O)C2(C)CCC13 (centres undefined) the Kd was > 4 mM (inactive). COC(=O)Nc1nc2c(s1)CCCC2 was tested, and the Kd was > 4 mM (inactive). With CC(=O)n1c(N)nc2ccccc21 the Kd was > 4 mM (inactive). For COC(=O)CCSCC(=O)Nc1nccs1, the Kd was > 4 mM (inactive). With O=c1[nH]c2ccc(S(=O)(=O)NC3CC3)cc2[nH]1 the Kd was > 4 mM (inactive). With CCNS(=O)(=O)c1ccc(OC)c(C)c1 the Kd was > 4 mM (inactive). O=C(O)c1cccc2c1OCC2 was tested, and the Kd was > 4 mM (inactive). With O=C1C=CC(=O)c2c(O)cccc21 the Kd was > 4 mM (inactive). Cc1nc(NC(=O)c2cccnc2)ccc1Br was tested, and the Kd was > 4 mM (inactive). In the case of COC(=O)c1ccc(N2CCOCC2)nc1, the Kd is reported as > 4 mM (inactive). For Cc1cc(=O)n2ncn(Cc3ccccc3)c2n1, the Kd was > 4 mM (inactive). With Cc1cc(C(=O)Nc2ccc3c(c2)OCO3)cs1 the Kd was > 4 mM (inactive). With Cc1cc2cc(N)ccc2[nH]1 the Kd was > 4 mM (inactive). For Nc1csc(C(=O)O)c1, the Kd was > 4 mM (inactive). With Cc1ccc(-c2nnn(CC(=O)O)n2)cc1 the Kd was > 4 mM (inactive). In the case of COC(=O)C[C@H]1C(C)(C)C(=O)[C@@H]2CC3C4=CC(=O)O[C@@H](c5ccoc5)[C@]4(C)CCC3C1(C)C2=O (some centres undefined), the Kd is reported as > 4 mM (inactive). Cn1nnc2c(Cl)ncnc21 was tested, and the Kd was > 4 mM (inactive). With Cc1n[nH]c(=S)n(/N=C/c2ccccc2)c1=O the Kd was > 4 mM (inactive). With CCOC(=O)c1csc(N)n1 the Kd was > 4 mM (inactive). In the case of CC(C)CCCC(C)[C@H]1CCC2C3CC[C@H]4CC(=O)CC[C@]4(C)C3CC[C@@]21C (some centres undefined), the Kd is reported as > 4 mM (inactive). In the case of CSc1ccccc1NC(=O)c1ccoc1C, the Kd is reported as > 4 mM (inactive). For COC(=O)N1CCN(c2ccc(OC)cc2)CC1, the Kd was > 4 mM (inactive). For NC1=NC(=O)/C(=C\c2ccco2)S1, the Kd was > 4 mM (inactive). With C=C1CCC2C(CC2(C)C)C(=C)CC/C1=N/O (centres undefined) the Kd was > 4 mM (inactive). In the case of Cc1ccc(Nc2nc(N)nc(CC#N)n2)cc1, the Kd is reported as > 4 mM (inactive). In the case of CC(=O)OC1CC[C@@]2(C)C(CCC3C2CC[C@]2(C)C(C4=CC(=O)OC4)C(OC(C)=O)CC32O)C1 (some centres undefined), the Kd is reported as > 4 mM (inactive). In the case of COC(=O)[C@]1(C)CCC[C@]2(C)c3ccc(C(C)C)cc3C(=O)CC12 (some centres undefined), the Kd is reported as > 4 mM (inactive). COc1cccc(C(=O)Nc2c(C)n[nH]c2C)c1 was tested, and the Kd was > 4 mM (inactive).
